# Data taken from patent US20040005537A1, “Method of identifying toxic agents using differential gene expression” (priority 2000, published 2004).
# Key:
# [1] = test system: rat heart tissue; assay: GENECALLING differential gene expression analysis after dosing of serotonin modulating agents; format: in vivo, Sprague Dawley rats
# Procedure: Control animals received sterile water or canola oil. The animals were sacrificed 24 hours following the last dose. Liver tissue was dissected from the animals, and total RNA was recovered from the dissected tissue. cDNA was prepared and the resulting samples were processed through using GENECALLING™ differential expression analysis as described in U.S. Pat. No. 5,871,697 and in Shimkets et al., Nature Biotechnology 17:798-803 (1999). The contents of these patents and publications are incorporated herein by reference in their entirety.
# Thousands of gene fragments were initially found to be differentially expressed in rat heart tissue in response to serotonin modulating agents in. Genes fragments whose expression levels were modulated greater than ±1.5-fold were selected for further analysis.
# Column 6 of Table 1, entitled “Function”, lists the type of classification assigned for the protein, based on its function. The 210 single nucleic acid sequences identified herein, are referred to herein as CARDIOTOX 1-210.
# [2] = grouping used to generate the distinguishing gene profiles; cited from earlier work
smiles,measurement,setting,value
CNS(=O)(=O)Cc1ccc2[nH]cc(CCN(C)C)c2c1 [sumatriptan],"Effects on Transcription Level: Novel gene fragment, 445 bp, 85% SI to human skeletal muscle alpha 2 actinin [M86406]",[1]; CARDIOTOX 72,5.7 fold
same,"Effects on Transcription Level: Novel gene fragment, 246 bp, 89% SI to mouse ponsin-1 [AF078667]",[1]; CARDIOTOX 73,−3.2 fold
same,"Effects on Transcription Level: Novel gene fragment, 126 bp, 77% SI to human DNA sequence from cosmid V311G7, between markers DXS366 and DXS87 on chromosome X [Z69304]",[1]; CARDIOTOX 74,+2.1 fold
same,"Effects on Transcription Level: Novel gene fragment, 370 bp",[1]; CARDIOTOX 75,−2.7 fold
same,"Effects on Transcription Level: Novel gene fragment, 337 bp, 78% SI to novel human protein AHNAK [M80899]",[1]; CARDIOTOX 76,−4.3 fold
same,"Effects on Transcription Level: Novel gene fragment, 100 bp, 93% SI to human KIAA0750 protein [ABO18293]",[1]; CARDIOTOX 77,−9.3 fold
same,"Effects on Transcription Level: Novel gene fragment, 44 bp",[1]; CARDIOTOX 78,−5.4 fold
same,"Effects on Transcription Level: Novel gene fragment, 698 bp, 93% SI to mouse plenty-of-prolines-101 [AF062655]",[1]; CARDIOTOX 79,−2.3 fold
same,"Effects on Transcription Level: Novel gene fragment, 660 bp, 84% SI to mouse membrane protein TMS-2 [AF181685]",[1]; CARDIOTOX 80,−3.8 fold
same,"Effects on Transcription Level: Novel gene fragment, 115 bp",[1]; CARDIOTOX 81,−4.1 fold
same,"Effects on Transcription Level: Novel gene fragment, 294 bp, 95% SI to mouse Ndr1 related protein Ndr2 [AB033921]",[1]; CARDIOTOX 82,−2.0 fold
same,"Effects on Transcription Level: Novel gene fragment, 198 bp",[1]; CARDIOTOX 83,+2.5 fold
same,"Effects on Transcription Level: Novel gene fragment, 730 bp, 86% SI to mouse E800 [Y10968]",[1]; CARDIOTOX 84,−2.8 fold
same,"Effects on Transcription Level: Novel gene fragment, 294 bp, 98% SI to cysteine conjugate beta-lyase [S61960]",[1]; CARDIOTOX 85,−2.8 fold
same,Effects on Transcription Level: Aconitase,"[1]; CARDIOTOX 86, GenBank A1243266",−1.9 fold
same,Effects on Transcription Level: Ribosomal protein L7,"[1]; CARDIOTOX 87, GenBank M17422",+2.5 fold
same,Effects on Transcription Level: Ribosomal protein L9,"[1]; CARDIOTOX 88, GenBank X51706",+10.1 fold
same,Effects on Transcription Level: Ribosomal protein L12,"[1]; CARDIOTOX 89, GenBank X53504",−1.5 fold
same,"Effects on Transcription Level: 18S, 5.8S, and 28S ribosomal RNA's","[1]; CARDIOTOX 90, GenBank V01270",+5 fold
same,Effects on Transcription Level: Pyruvate dehydrogenase kinase 2 (PDK2),"[1]; CARDIOTOX 91, GenBank U10357",−6.10 fold
same,Effects on Transcription Level: D-Binding Protein (DBP),"[1]; CARDIOTOX 92, GenBank J03179",−1.4 fold
same,Effects on Transcription Level: Lipoprotein lipase,"[1]; CARDIOTOX 93, GenBank L03294",−2.2 fold
same,Effects on Transcription Level: Non-neuronal enolase,"[1]; CARDIOTOX 94, GenBank X02610",+3.5 fold
same,Effects on Transcription Level: Glycogen phosphorylase (muscle isozyme),"[1]; CARDIOTOX 95, GenBank L10669",−2.6 fold
same,Effects on Transcription Level: Cytochrome c oxidase subunit IV,"[1]; CARDIOTOX 96, GenBank X14209",+10.0 fold
same,Effects on Transcription Level: Alpha-globin,"[1]; CARDIOTOX 97, GenBank M17083",+3.8 fold
same,Effects on Transcription Level: Beta-globin,"[1]; CARDIOTOX 98, GenBank X06701",+3.11 fold
same,Effects on Transcription Level: Myoglobin,"[1]; CARDIOTOX 99, GenBank AF197916",+4.7 fold
same,Effects on Transcription Level: Titin,"[1]; CARDIOTOX 100, GenBank L38717",−2.1 fold
same,Effects on Transcription Level: Skeletal muscle actin,"[1]; CARDIOTOX 101, GenBank V01218",−18.3 fold
same,Effects on Transcription Level: Myosin light chain 2 (MLC2),"[1]; CARDIOTOX 102, GenBank M11851",+2.2 fold
same,Effects on Transcription Level: Alpha cardiac myosin heavy chain,"[1]; CARDIOTOX 103, GenBank X15938",−3.5 fold
same,Effects on Transcription Level: Troponin I,"[1]; CARDIOTOX 104, GenBank U77354",+1.8 fold
same,Effects on Transcription Level: Cardiac calsequestrin,"[1]; CARDIOTOX 105, GenBank AF001334",−2.9 fold
same,Effects on Transcription Level: Sulfated glycoprotein 2,"[1]; CARDIOTOX 106, GenBank M16975",−1.6 fold
same,Effects on Transcription Level: Aquaporin 7,"[1]; CARDIOTOX 107, GenBank AB000507",+1.5 fold
same,Effects on Transcription Level: Carnitine/acylcarnitine carrier protein,"[1]; CARDIOTOX 108, GenBank X97831",−2.5 fold
same,Effects on Transcription Level: Glu-Pro Dipeptide Repeat,"[1]; CARDIOTOX 109, GenBank U40628",−6.2 fold
same,Effects on Transcription Level: Cystatin beta,"[1]; CARDIOTOX 110, GenBank X54737",+2.5 fold
same,"Effects on Transcription Level: Novel gene fragment, 593 bp, 90% SI to human calcineurin B-like protein [Z08983]",[1]; CARDIOTOX 111,+1.10 fold
same,"Effects on Transcription Level: Novel gene fragment, 179 bp, 88% SI to human titin [X90568]",[1]; CARDIOTOX 112,−3.1 fold
same,"Effects on Transcription Level: Novel gene fragment, 700 bp, 91% SI to mouse periplakin (PPL) [AF116523]",[1]; CARDIOTOX 113,+2.5 fold
same,Effects on Transcription Level: Long chain acyl-CoA dehydrogenase (LCAD),"[1]; CARDIOTOX 114, GenBank J05029",+1.7 fold
same,Effects on Transcription Level: Sulfated glycoprotein 1 (SGP-1),"[1]; CARDIOTOX 115, GenBank M19936",−1.8 fold
same,Effects on Transcription Level: Catalase,"[1]; CARDIOTOX 116, GenBank M11670",+2.1 fold
same,Effects on Transcription Level: Alpha-fodrin (A2A) (Nonerythroid spectrin alpha subunit),"[1]; CARDIOTOX 117, GenBank AF084186",−1.7 fold
same,Effects on Transcription Level: Cardiac specific sodium channel alpha-subunit,"[1]; CARDIOTOX 118, GenBank M27902",−2.0 fold
same,Effects on Transcription Level: Glu-Pro Dipeptide Repeat,"[1]; CARDIOTOX 119, GenBank U40628",+4.2 fold
same,"Effects on Transcription Level: Novel gene fragment, 200 bp, 64% SI to human KIAA0733 protein [AB018316]",[1]; CARDIOTOX 120,−1.6 fold
same,Effects on Transcription Level: RNA polymerase II transcription factor SIII (p18 subunit),"[1]; CARDIOTOX 121, GenBank L42855",+2.1 fold
same,Effects on Transcription Level: Protein-tyrosine phosphalase (LRP),"[1]; CARDIOTOX 122, GenBank L01702",+1.8 fold
same,Effects on Transcription Level: Skeletal muscle selenoprotein W (SelW),"[1]; CARDIOTOX 123, GenBank U25264",−1.6 fold
same,Effects on Transcription Level: Sarcoplasmic reticulum 2+-Ca-ATPase,"[1]; CARDIOTOX 124, GenBank X15635",−2.1 fold
same,Effects on Transcription Level: Ribosomal protein S7,"[1]; CARDIOTOX 125, GenBank X53377",+1.7 fold
same,Effects on Transcription Level: Ribophorin I,"[1]; CARDIOTOX 126, GenBank X05300",+2.0 fold
same,Effects on Transcription Level: Beta cardiac myosin heavy chain,"[1]; CARDIOTOX 127, GenBank X15939",+2.2 fold
same,Effects on Transcription Level: ADP-ribosylation factor 1,"[1]; CARDIOTOX 128, GenBank L12380",+1.3 fold
same,Effects on Transcription Level: Laminin receptor,"[1]; CARDIOTOX 129, GenBank U04942",+2.6 fold
same,"Effects on Transcription Level: Novel gene fragment, 206 bp, 89% SI to human seryl-tRNA synthetase [X91257]",[1]; CARDIOTOX 130,+1.8 fold
same,Effects on Transcription Level: Annexin VI,"[1]; CARDIOTOX 131, GenBank X86086",−09.0 fold
same,"Effects on Transcription Level: Novel gene fragment, 325 bp, 90% SI to mouse N-RAP [U76618]",[1]; CARDIOTOX 132,+1.7 fold
same,"Effects on Transcription Level: Novel gene fragment, 61 bp (CARDIOTOX 134)",[1]; LD10 dose for three days,−3 fold
same,"Effects on Transcription Level: Novel gene fragment, 337 bp (CARDIOTOX 133)",[1]; LD10 dose for three days,−2.1 fold
same,"Effects on Transcription Level: Novel gene fragment, 378 bp, 88% SI to human coatomer protein (COPA) [U24105] (CARDIOTOX 138)",[1]; LD10 dose for three days,−2.1 fold
same,Effects on Transcription Level: Long chain 3-ketoacyl-CoA thiolase (CARDIOTOX 136),"[1]; LD10 dose for three days, GenBank D16479",−1.5 fold
same,Effects on Transcription Level: TATA-binding protein interacting protein 120 (TIP120) (CARDIOTOX 135),"[1]; LD10 dose for three days, GenBank D87671",+2.4 fold
same,Effects on Transcription Level: Serine protease (CARDIOTOX 139),"[1]; LD10 dose for three days, GenBank D88250",+1.7 fold
same,Effects on Transcription Level: Thymosin beta-4 (CARDIOTOX 137),"[1]; LD10 dose for three days, GenBank M34043",+1.4 fold
same,Effects on Transcription Level: Annexin VI (no CARDIOTOX assignment given),"[1]; LD10 dose for three days, GenBank X86086",−5.1 fold
same,classification as cardiotoxic or noncardiotoxic serotonin modulating agent,[2],noncardiotoxic
